Results as given in patent US6914045B2, “Glycopeptide antibiotics” (Wyeth Holdings Corporation, priority 2001, dated 2005).

Tests used:
Test in all cases: in vitro antibacterial evaluation, MIC by broth dilution
Type in all cases: cell-based
Enterococcus sp. = settings: broth dilution, 18 hours at 35° C.; for MIC Enterococcus faecalis (GC 2242): strain GC 2242; for MIC Enterococcus faecalis (GC 4552): strain GC 4552
Method in brief: (§1)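 MIC = lowest antibiotic concentration preventing visible growth; inoculum 5×10^5 CFU/mL; drug range 64-0.06 μg/mL; Muller-Hinton II […]; NCCLS M7-A2 guidance.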

Escherichia coli = settings: 18 hours at 35° C.
Method in brief: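 Read-out: the lowest concentration at which the test strain fails to grow. Serial dilutions (64-0.06 μg/mL) in Muller-Hinton II […], 5×10^5 CFU/mL inoculum, NCCLS M7-A2 procedure.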

Staphylococcus sp. = settings: broth dilution, 18 hours at 35° C.
Method in brief: as §1

Streptococcus sp. = settings: broth dilution, 18 hours at 35° C.; for MIC Streptococcus agalactiae (GC 4564): strain GC 4564
Method in brief: as §1

[1] = Enterococcus faecalis (ATCC 29212)
[2] = Enterococcus faecalis (GC 4553)
[3] = Enterococcus faecalis (GC 4554)

CC(C)CC(=O)OC1C(OC2C(CO)OC(Oc3ccc(CC4NC(=O)C(C(C)c5cccc(F)c5)NC(=O)CNC(=O)C(CO)NC(=O)C(C(O)C5CNC(=N)N5C5OC(CO)C(O)C(O)C5O)NC(=O)C(C(O)C5CNC(=N)N5)NC4=O)cc3)C(O)C2O)OC(CO)C(O)C1O (stereo not drawn) [Example 264a, Cyclo[glycyl-3-fluoro-β-methylphenylalanyl-O-[4-O-[2-O-(3-methylbutanoyl)hexopyranosyl]-hexopyranosyl]tyrosyl-3-(2-iminoimidazolidin-4-yl)seryl-3-(3-hexopyranosyl-2-iminoimidazolidin-4-yl)serylseryl]]
32 µg/mL: MIC Enterococcus faecium (GC 4557) (Enterococcus sp.; Enterococcus faecium (GC 4557)) | MIC Enterococcus faecium (GC 4557) (Enterococcus sp.; strain GC 4557)
16 µg/mL: MIC Coagulase Negative Staphylococcus (GC 4551) (Staphylococcus sp.) | MIC Staphylococcus aureus (ATCC 29213) (Staphylococcus sp.) | MIC Staphylococcus aureus (GC 1131) (Staphylococcus sp.) | MIC Staphylococcus aureus (GC 4541) (Staphylococcus sp.) | MIC Staphylococcus aureus (GC 4542) (Staphylococcus sp.) | MIC Staphylococcus aureus (ATCC 29213) (Staphylococcus sp.; strain ATCC 29213) | MIC Staphylococcus aureus (GC 1131) (Staphylococcus sp.; strain GC 1131) | MIC Staphylococcus aureus (GC 4541) (Staphylococcus sp.; strain GC 4541) | MIC Staphylococcus aureus (GC 4542) (Staphylococcus sp.; strain GC 4542) | MIC Coagulase Negative Staphylococcus (GC 4551) (Staphylococcus sp.; strain GC 4551)
64 µg/mL: MIC Enterococcus faecalis (ATCC 29212) (Enterococcus sp.; [1]) | MIC Enterococcus faecium (GC 4556) (Enterococcus sp.; Enterococcus faecium (GC 4556)) | MIC Enterococcus faecalis (ATCC 29212) (Enterococcus sp.; strain ATCC 29212) | MIC Enterococcus faecalis (GC 2242) (Enterococcus sp.) | MIC Enterococcus faecium (GC 4556) (Enterococcus sp.; strain GC 4556) | MIC Escherichia coli (ATCC 25922) (Escherichia coli)
>64 µg/mL: MIC Enterococcus avium (GC 4558) (Enterococcus sp.; Enterococcus avium (GC 4558)) | MIC Enterococcus faecalis (GC 4553) (Enterococcus sp.; [2]) | MIC Enterococcus faecalis (GC 4554) (Enterococcus sp.; [3]) | MIC Enterococcus faecium (GC 2243) (Enterococcus sp.; Enterococcus faecium (GC 2243)) | MIC Enterococcus faecium (GC 2243) (Enterococcus sp.; strain GC 2243) | MIC Enterococcus faecalis (GC 4552) (Enterococcus sp.) | MIC Enterococcus faecalis (GC 4553) (Enterococcus sp.; strain GC 4553) | MIC Enterococcus faecalis (GC 4554) (Enterococcus sp.; strain GC 4554) | MIC Enterococcus avium (GC 4558) (Enterococcus sp.; strain GC 4558) | MIC Escherichia coli (GC 4559) (Escherichia coli)
4 µg/mL: MIC Escherichia coli (GC 4560) (Escherichia coli) | MIC Coagulase Negative Staphylococcus (GC 4548) (Staphylococcus sp.) | MIC Coagulase Negative Staphylococcus (GC 4549) (Staphylococcus sp.) | MIC Coagulase Negative Staphylococcus (GC 4548) (Staphylococcus sp.; strain GC 4548) | MIC Coagulase Negative Staphylococcus (GC 4549) (Staphylococcus sp.; strain GC 4549) | MIC Streptococcus pyogenes (ID-3187) (Streptococcus sp.; strain ID-3187)
8 µg/mL: MIC Coagulase Negative Staphylococcus (GC 4547) (Staphylococcus sp.) | MIC Staphylococcus aureus (GC 4544) (Staphylococcus sp.) | MIC Staphylococcus aureus (GC 4545) (Staphylococcus sp.) | MIC Staphylococcus aureus-SMITH (GC 4543) (Staphylococcus sp.) | MIC Staphylococcus haemolyticus (GC 4546) (Staphylococcus sp.) | MIC Staphylococcus aureus (GC 4544) (Staphylococcus sp.; strain GC 4544) | MIC Staphylococcus aureus (GC 4545) (Staphylococcus sp.; strain GC 4545) | MIC Staphylococcus haemolyticus (GC 4546) (Staphylococcus sp.; strain GC 4546) | MIC Coagulase Negative Staphylococcus (GC 4547) (Staphylococcus sp.; strain GC 4547) | MIC Staphylococcus aureus-SMITH (GC 4543) (Staphylococcus sp.; strain SMITH GC 4543) | MIC Streptococcus agalactiae (GC 4564) (Streptococcus sp.)

CC(c1ccccc1)C1NC(=O)CNC(=O)C(CO)NC(=O)C(C(O)C2CNC(=N)N2C2OC(CO)C(O)C(O)C2O)NC(=O)C(C(O)C2CNC(=N)N2)NC(=O)C(Cc2ccc(OC3OC(CO)C(OC4OC(CO)C(O)C(O)C4O)C(O)C3O)c(N)c2)NC1=O (stereo not drawn) [Example 287, Cyclo[glycyl-β-methylphenylalanyl-2-amino-O-(4-O-hexopyranosylhexopyranosyl)tyrosyl-3-(2-iminoimidazolidin-4-yl)seryl-3-(3-hexopyranosyl-2-iminoimidazolidin-4-yl)serylseryl]]
>64 µg/mL: MIC Enterococcus faecalis (ATCC 29212) (Enterococcus sp.; [1]) | MIC Enterococcus faecalis (GC 4553) (Enterococcus sp.; [2]) | MIC Enterococcus faecalis (GC 4554) (Enterococcus sp.; [3]) | MIC Enterococcus faecalis (GC 6189) (Enterococcus sp.; Enterococcus faecalis (GC 6189)) | MIC Enterococcus faecium (GC 2243) (Enterococcus sp.; Enterococcus faecium (GC 2243)) | MIC Enterococcus faecium (GC 4556) (Enterococcus sp.; Enterococcus faecium (GC 4556)) | MIC Enterococcus faecalis (ATCC 29212) (Enterococcus sp.; strain ATCC 29212) | MIC Enterococcus faecalis (GC 2242) (Enterococcus sp.) | MIC Enterococcus faecium (GC 2243) (Enterococcus sp.; strain GC 2243) | MIC Enterococcus faecalis (GC 2691) (Enterococcus sp.; strain GC 2691) | MIC Enterococcus faecalis (GC 3059) (Enterococcus sp.; strain GC 3059) | MIC Enterococcus faecalis (GC 4552) (Enterococcus sp.) | MIC Enterococcus faecalis (GC 4553) (Enterococcus sp.; strain GC 4553) | MIC Enterococcus faecalis (GC 4554) (Enterococcus sp.; strain GC 4554) | MIC Enterococcus faecium (GC 4556) (Enterococcus sp.; strain GC 4556) | MIC Enterococcus faecalis (GC 6189) (Enterococcus sp.; strain GC 6189) | MIC Escherichia coli (ATCC 25922) (Escherichia coli) | MIC Escherichia coli (GC 4559) (Escherichia coli) | MIC Escherichia coli (GC 4560) (Escherichia coli) | MIC Coagulase Negative Staphylococcus (GC 4547) (Staphylococcus sp.) | MIC Coagulase Negative Staphylococcus (GC 4548) (Staphylococcus sp.) | MIC Coagulase Negative Staphylococcus (GC 4549) (Staphylococcus sp.) | MIC Coagulase Negative Staphylococcus (GC 4551) (Staphylococcus sp.) | MIC Coagulase Negative Staphylococcus (GC 6257) (Staphylococcus sp.) | MIC Staphylococcus aureus (ATCC 29213) (Staphylococcus sp.) | MIC Staphylococcus aureus (GC 1131) (Staphylococcus sp.) | MIC Staphylococcus aureus (GC 3051) (Staphylococcus sp.) | MIC Staphylococcus aureus (GC 3053) (Staphylococcus sp.) | MIC Staphylococcus aureus (GC 4541) (Staphylococcus sp.) | MIC Staphylococcus aureus (GC 4542) (Staphylococcus sp.) | MIC Staphylococcus aureus (GC 4544) (Staphylococcus sp.) | MIC Staphylococcus aureus (GC 4545) (Staphylococcus sp.) | MIC Staphylococcus aureus-SMITH (GC 4543) (Staphylococcus sp.) | MIC Staphylococcus haemolyticus (GC 4546) (Staphylococcus sp.) | MIC Staphylococcus aureus (ATCC 29213) (Staphylococcus sp.; strain ATCC 29213) | MIC Staphylococcus aureus (GC 1131) (Staphylococcus sp.; strain GC 1131) | MIC Staphylococcus aureus (GC 3051) (Staphylococcus sp.; strain GC 3051) | MIC Staphylococcus aureus (GC 3053) (Staphylococcus sp.; strain GC 3053) | MIC Staphylococcus aureus (GC 4541) (Staphylococcus sp.; strain GC 4541) | MIC Staphylococcus aureus (GC 4542) (Staphylococcus sp.; strain GC 4542) | MIC Staphylococcus aureus (GC 4544) (Staphylococcus sp.; strain GC 4544) | MIC Staphylococcus aureus (GC 4545) (Staphylococcus sp.; strain GC 4545) | MIC Staphylococcus haemolyticus (GC 4546) (Staphylococcus sp.; strain GC 4546) | MIC Coagulase Negative Staphylococcus (GC 4547) (Staphylococcus sp.; strain GC 4547) | MIC Coagulase Negative Staphylococcus (GC 4548) (Staphylococcus sp.; strain GC 4548) | MIC Coagulase Negative Staphylococcus (GC 4549) (Staphylococcus sp.; strain GC 4549) | MIC Coagulase Negative Staphylococcus (GC 4551) (Staphylococcus sp.; strain GC 4551) | MIC Coagulase Negative Staphylococcus (GC 6257) (Staphylococcus sp.; strain GC 6257) | MIC Staphylococcus aureus-SMITH (GC 4543) (Staphylococcus sp.; strain SMITH GC 4543) | MIC Streptococcus pyogenes (GC 4563) (Streptococcus sp.; strain GC 4563) | MIC Streptococcus agalactiae (GC 4564) (Streptococcus sp.)
64 µg/mL: MIC Enterococcus avium (GC 4558) (Enterococcus sp.; Enterococcus avium (GC 4558)) | MIC Enterococcus faecium (GC 4557) (Enterococcus sp.; Enterococcus faecium (GC 4557)) | MIC Enterococcus faecium (GC 4557) (Enterococcus sp.; strain GC 4557) | MIC Enterococcus avium (GC 4558) (Enterococcus sp.; strain GC 4558) | MIC Streptococcus pneumoniae (ATCC 6301) (Streptococcus sp.; strain ATCC 6301) | MIC Streptococcus pneumoniae (GC 1894) (Streptococcus sp.; strain GC 1894) | MIC Streptococcus pneumoniae (GC 4565) (Streptococcus sp.; strain GC 4565)
